Converted amounts (≈) assume the structure as drawn.
Experiments:
Aphelenchoides besseyi [1] = test: Nematocidal activity against Aphelenchoides besseyi assessed as mortality after 24 hr; format: functional
Meloidogyne incognita [2] = test: Nematocidal activity against Meloidogyne incognita (root-knot nematode) assessed as mortality after 24 hr; format: functional
Meloidogyne incognita [3] = test: Nematocidal activity against Meloidogyne incognita (root-knot nematode) assessed as mortality at 100 ug/ml after 24 hr; format: functional
[4] = Toxicity in Rattus norvegicus (rat); format: organism-based; settings: in vivo, read-out: LC50 (the source's name)
Aphelenchoides besseyi [5] = test: Nematocidal activity against Aphelenchoides besseyi assessed as mortality at 200 ug/ml after 24 hr; format: functional

Row | SMILES | LC50 (Aphelenchoides besseyi [1]) [µg/mL] | LC50 (Meloidogyne incognita [2]) [µg/mL] | mortality at 100 µg/mL (Meloidogyne incognita [3]) [%] | LD50 [4] [mg/kg] | mortality at 200 µg/mL (Aphelenchoides besseyi [5]) [%]
1 | CC1=C[C@H]2OO[C@@H]1C[C@@H]2C(C)C | 69 (≈ 410 µM) | 25 (≈ 149 µM) | 100 |  | 
2 | CNC(=O)O/N=C(\SC)C(=O)N(C)C [OXAMYL] | 0.1 (≈ 0.456 µM) | 0.07 (≈ 0.319 µM) |  | 3.1 | 
3 | CC(C)C12C=CC(C)(CC1)OO2 (stereo not drawn) [ASCARIDOLE] | 365 (≈ 2170 µM) | 52 (≈ 309 µM) | 100 |  | < 50
4 | CC(C)C12C=CC(CO)(CC1)OO2 (stereo not drawn) | 402 (≈ 2180 µM) | 55 (≈ 299 µM) | 100 |  | < 50
5 | C=C(C)[C@H]1C[C@@H]2OO[C@H]1C=C2C | 50 (≈ 301 µM) | 23 (≈ 138 µM) | 100 |  | 
6 | C=C(C)[C@H]1C[C@H]2OO[C@@H]1C=C2C | 21 (≈ 126 µM) | 12 (≈ 72.2 µM) | 100 |  | 
7 | COC(=O)C12C=CC(C(C)C)(CC1)OO2 (stereo not drawn) | 2 (≈ 9.42 µM) | 2 (≈ 9.42 µM) | 100 |  | 100
8 | C=C(C)[C@H]1C[C@@H]2OO[C@H]1C(OC(C)=O)=C2C | 306 (≈ 1360 µM) | 51 (≈ 227 µM) | 100 |  | 
9 | CC1=C[C@@H]2OO[C@H]1C[C@@H]2C(C)C | 110 (≈ 654 µM) | 51 (≈ 303 µM) | 100 |  | 
10 | C=C(C)[C@H]1C[C@H]2OO[C@@H]1C(OC(C)=O)=C2C | 302 (≈ 1350 µM) | 50 (≈ 223 µM) | 100 |  | < 50
11 | CC(C)C12C=CC(C(=O)O)(CC1)OO2 (stereo not drawn) | 4 (≈ 20.2 µM) | 2 (≈ 10.1 µM) | 100 |  | 100

Source: ChEMBL document CHEMBL3044786, “Synthesis and nematocidal activity of ascaridole derivatives against Meloidogyne incognita and Aphelenchoides besseyi” (J Pestic Sci, 2007)
